This is an account of results in US20110015066A1, “Herbicidal Composition” (priority 2008, published 2011).

A short description of series [1]: Accelerated Heat Stability of compositions: active ingredient content before and after 14 days. It is filed as physicochemical. As to conditions: 1 %. As for the experimental part:
The numbers of formulations were made up as described in above examples. The concentration of Clodinafop propargyl (15%)+Metsulfuron methyl (1%) 16% WP was tested for its active stability at elevated temperature (54±2° C.) and at 3 different pH ranges as shown below.
The storage stability of the compositions according the present invention was compared with the storage stability of compositions individually and in combination as Tank, mix and plant mixes. The term Tank mix means that clodinafop-propargyl and metsulfuron methyl are mixed in the tank at the time of spraying. The term plant mix means that ready mix of the clodinafop-propargyl and metsulfuron methyl are diluted in the tank before spraying.

Series [2] has as its system Susceptible plants. As to conditions: after post-emergence treatment; cited from earlier work.
Series [3] deals with broad leaf weeds. Description: Field trial in wheat: weed population and biomass of broad leaf weeds. It is filed as in vivo. As for the experimental part:
Parts and percentages are by weight unless otherwise indicated. Field tests were made at various trial sites. The performance of the new combination herbicide according to the present invention (Clodinafop 15% and metsulfuron methyl 1%), Metsulfuron methyl 20% WP and Clodinafop-propargyl 15% WP was evaluated against weed flora in wheat crop during rabi season. Recommended package of practices for wheat crop was followed to raise the crop. The herbicide treatments were applied as post emergence spray at 35 days after sowing (DAS). The data on weed population (number/m^2) and dry matter (gm/m^2) was taken after 60 days after sowing and at the harvest. Similar yields (quintal/hectare i.e. q/ha.) and yield attributed parameters like plant height, number of effective tiller, number of grain per ear-head, test weight were recorded at harvest. A statistical analysis of the entire data was carried out.
The major weed flora recorded in the experimental field were grasses like Phalaris minor and Avena fatua and broad leaf weeds namely Chenopodium album, Rumex sp., Convolvulus arvensis, Melilotus alba, Medicago denticulata, Fumaria sp. Vicia sativa and Anagalis arvensis.

`COC(=O)c1ccccc1S(=O)(=O)NC(=O)Nc1nc(C)nc(OC)n1` [metsulfuron methyl, methyl 2-(4-methoxy-6-methyl-1,3,5-triazin-2-ylcarbamoylsulfamoyl)benzoate]: the entries for the “Metsulfuron methyl % degradation” value in series [1] (pH 4.5), in series [1] (pH 6.8) and in series [1] (pH 8.5) were 24.67%, 12.64% and 4.82%, respectively. Further, in series [2], the “time in which susceptible plants are killed” value was 7 to 21 days. Moreover, in series [3], the “control of broad leaf weeds (in words)” value is reported as “superior control of broad leaf weeds only”.
